Our source for the IC50 values is patent publication US20250346602A1, “LACTAM SUBSTITUTED IMIDAZOPYRIDAZINE IL-17A MODULATORS AND USES THEREOF” (DICE ALPHA, INC., priority 2022, published 2025).

Molecules are shown by their SMILES. pIC50: −log10 of the molar value.

The target of the experiment is T1, IL-17A/A (Homo sapiens, UniProt Q16552).
T1 construct: purchased Genscript Z03228
T1 sequence (Q16552 24-155): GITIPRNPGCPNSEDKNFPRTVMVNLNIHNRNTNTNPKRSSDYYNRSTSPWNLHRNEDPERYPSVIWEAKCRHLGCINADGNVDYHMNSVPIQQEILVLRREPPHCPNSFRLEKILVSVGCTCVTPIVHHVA
Description: IL-17A/A HEK-Blue cell assay. The class given is cell-based. The following applies: HEK-Blue IL-17A reporter cell line (HEK 293), IL-17A/A stimulation, 20 hours incubation, SEAP read at A630. The protocol: The HEK-Blue IL-17A reporter cell line (Fisher #NC1408637) was used for cell-based IL-17A/A inhibition assays. Cells were grown and prepared for assays according to the manufacturer's instructions. This cell line consists of HEK 293 cells that were designed to expressed IL-17RA, IL-17RC, and the ActI adapter molecule, the combination of which, when stimulated by IL-17A/A activates a NFκB promoter and drives expression of a recombinant Secreted Alkaline Phosphatase (SEAP) gene protein. Media from the cells is then added to a development reagent (Quanti-Blue Substrate, Fisher #NC9711613), and read at A630.
Compounds were titrated in DMSO, with a top final compound concentration of 10 uM, 1 uM, or 0.3 uM, and added to the cells immediately before adding IL-17A/A (Genscript #Z03228). The cells, compound, and IL-17A/A were then incubated for 20 hours before media was removed for SEAP analysis. The resulting inhibition curve was then analyzed using Graphpad Prism 7.0, and IC50 values were determined using a 4-parameter nonlinear fit. DMSO was added to a universal final concentration of 0.1% to optimize background.

On to `CCn1nccc1C(=O)N[C@H](c1cn2nc(CC3CC(F)(F)CNC3=O)ccc2n1)C(C1CC1)C1CC1` (single isomer, unassigned) [Compound 29], for which the pIC50 is less than 6.00.

`O=C(N[C@H](c1cn2nc(CC3C[C@H](C(F)(F)F)CNC3=O)ccc2n1)[C@@H]1CCCC(F)(F)C1)c1nonc1C1CC1` (stereo partly drawn) [Compound 156, 4-cyclopropyl-N—((S)-((R)-3,3-difluorocyclohexyl)(6-(((5S)-2-oxo-5-(trifluoromethyl)piperidin-3-yl)methyl)imidazo[1,2-b]pyridazin-2-yl)methyl)-1,2,5-oxadiazole-3-carboxamide]: the negative logarithm of the IC50 (pIC50) was 6.00 to 7.00. Under `CCn1nccc1C(=O)N[C@H](c1cn2nc(CC3CCNC3=O)ccc2n1)C1CCC(F)(F)CC1` (single isomer, unassigned) [Compound 1] stands less than 6.00. On to `CCn1nccc1C(=O)N[C@H](c1cn2nc(CC3CCC(C(F)(F)F)NC3=O)ccc2n1)C(C1CC1)C1CC1` (single isomer, unassigned) [Compound 43], for which the pIC50 was less than 6.00. Under `CCn1nccc1C(=O)NC(c1cn2ncc(CC3CCC(C(F)(F)F)NC3=O)cc2n1)C1CCC(C)CC1` (single isomer, unassigned) [Compound 214] stands 6.00 to 7.00; under `O=C(N[C@H](c1cn2ncc(CC3C[C@@H](C(F)(F)F)NC3=O)cc2n1)C1CCC(F)(F)CC1)c1nonc1C1CC1` (single isomer, unassigned) [Compound 205], greater than 7.00; under `CCn1nccc1C(=O)N[C@H](c1cn2nc(C[C@@H]3CCCNC3=O)ccc2n1)[C@H]1CC[C@H](C)CC1` [Compound 39, 1-ethyl-N—((S)-((1r,4S)-4-methylcyclohexyl)(6-(((S)-2-oxopiperidin-3-yl)methyl)imidazo[1,2-b]pyridazin-2-yl)methyl)-1H-pyrazole-5-carboxamide], 6.00 to 7.00. The value for `O=C(N[C@H](c1cn2nc(CC3C[C@H](C(F)(F)F)CNC3=O)ccc2n1)[C@@H]1CCCC(F)(F)C1)c1conc1C1CC1` (stereo partly drawn) [Compound 158, 3-cyclopropyl-N-((1S)—((R)-3,3-difluorocyclohexyl)(6-(((5S)-2-oxo-5-(trifluoromethyl)piperidin-3-yl)methyl)imidazo[1,2-b]pyridazin-2-yl)methyl)isoxazole-4-carboxamide] was 6.00 to 7.00. The value for `CCn1nccc1C(=O)N[C@H](c1cn2nc(CC3C[C@@H](C(F)(F)F)CNC3=O)ccc2n1)C1CC2(CCC2)C1` (single isomer, unassigned) [Compound 189] was 6.00 to 7.00. As for `CCc1nonc1C(=O)N[C@H](c1cn2nc(C[C@H]3CCCNC3=O)ccc2n1)C1CCC(F)(F)CC1` [Compound 37, N—((S)-(4,4-difluorocyclohexyl)(6-(((R)-2-oxopiperidin-3-yl)methyl)imidazo[1,2-b]pyridazin-2-yl)methyl)-4-ethyl-1,2,5-oxadiazole-3-carboxamide], the pIC50 was less than 6.00. On to `O=C(N[C@H](c1cn2ncc(CC3C[C@@H](C(F)(F)F)NC3=O)cc2n1)C1CCC(F)(F)CC1)c1conc1C(F)(F)F` (single isomer, unassigned) [Compound 215], for which the pIC50 is greater than 7.00.

For `CCn1nccc1C(=O)N[C@H](c1cn2nc(C[C@@H]3CCCNC3=O)ccc2n1)C(C1CC1)C1CC1` (single isomer, unassigned) [Compound 33], the pIC50 was 6.00 to 7.00. The value for `O=C(N[C@H](c1cn2nc(CC3C[C@@H](C(F)(F)F)CNC3=O)ccc2n1)C1CCC(F)(F)CC1)c1ccnn1C1CC1` (stereo partly drawn) [Compound 137, 1-cyclopropyl-N-((1S)-(4,4-difluorocyclohexyl)(6-(((5R)-2-oxo-5-(trifluoromethyl)piperidin-3-yl)methyl)imidazo[1,2-b]pyridazin-2-yl)methyl)-1H-pyrazole-5-carboxamide] was 6.00 to 7.00; that for `CCn1nccc1C(=O)N[C@H](c1cn2nc(CC3CC(F)(F)CNC3=O)ccc2n1)C1CCC(F)(F)CC1` (single isomer, unassigned) [Compound 25] was 6.00 to 7.00. Under `CC(C)(F)c1nocc1C(=O)N[C@H](c1cn2nc(CC3C[C@@H](C(F)(F)F)CNC3=O)ccc2n1)C1CCC(F)(F)CC1` (stereo partly drawn) [Compound 121, N-((1S)-(4,4-difluorocyclohexyl)(6-(((5R)-2-oxo-5-(trifluoromethyl)piperidin-3-yl)methyl)imidazo[1,2-b]pyridazin-2-yl)methyl)-3-(2-fluoropropan-2-yl)isoxazole-4-carboxamide] stands 6.00 to 7.00; under `CCn1nccc1C(=O)N[C@H](c1cn2ncc(CC3C[C@@H](C(F)(F)F)NC3=O)cc2n1)C1CCCCCC1` (mixture of isomers) [Compound 207, N-((l S)-cycloheptyl(7-(((5S)-2-oxo-5-(trifluoromethyl)pyrrolidin-3-yl)methyl)imidazo[1,2-b]pyridazin-2-yl)methyl)-1-ethyl-1H-pyrazole-5-carboxamide], greater than 7.00.

Take `CCn1nccc1C(=O)N[C@H](c1cn2nc(CC3C[C@H](C(F)(F)F)CNC3=O)ccc2n1)C(C1CC1)C1CC1` (stereo partly drawn) [Compound 153, N-((1S)-2,2-dicyclopropyl-1-(6-(((5S)-2-oxo-5-(trifluoromethyl)piperidin-3-yl)methyl)imidazo[1,2-b]pyridazin-2-yl)ethyl)-1-ethyl-1H-pyrazole-5-carboxamide]: the pIC50 was 6.00 to 7.00.

In the case of `CCn1nccc1C(=O)N[C@H](c1cn2nc(CC3C[C@@H](C(F)(F)F)CNC3=O)c(N(C)C)cc2n1)C1CCC(F)(F)CC1` (single isomer, unassigned) [Compound 85], the pIC50 is 6.00 to 7.00. Under `C[C@H]1CC[C@H]([C@H](NC(=O)c2nonc2N)c2cn3nc(CC4C[C@@H](C(F)(F)F)CNC4=O)ccc3n2)CC1` (stereo partly drawn) [Compound 164, 4-amino-N-((1S)—((1R.4S)-4-methylcyclohexyl)(6-(((5R)-2-oxo-5-(trifluoromethyl)piperidin-3-yl)methyl)imidazo[1,2-b]pyridazin-2-yl)methyl)-1,2,5-oxadiazole-3-carboxamide] stands less than 6.00; under `CCn1nccc1C(=O)N[C@H](c1cn2nc(CC3CC(F)(F)CNC3=O)c(OC)cc2n1)C1CCC(F)(F)CC1` (stereo partly drawn) [Compound 75, N-((1S)-(6-((5,5-difluoro-2-oxopiperidin-3-yl)methyl)-7-methoxyimidazo[1,2-b]pyridazin-2-yl)(4,4-difluorocyclohexyl)methyl)-1-ethyl-1H-pyrazole-5-carboxamide], less than 6.00; under `CCn1nccc1C(=O)N[C@H](c1cn2nc(CC3CC4(CC4)CNC3=O)ccc2n1)[C@H]1CC[C@H](C)CC1` (single isomer, unassigned) [Compound 64], 6.00 to 7.00.

In the case of `O=C(N[C@H](c1cn2nc(CC3C[C@@H](C(F)(F)F)CNC3=O)ccc2n1)[C@H]1CCCC(F)(F)C1)c1nonc1C1CC1` (stereo partly drawn) [Compound 144, 4-cyclopropyl-N—((S)-((S)-3,3-difluorocyclohexyl)(6-(((5R)-2-oxo-5-(trifluoromethyl)piperidin-3-yl)methyl)imidazo[1,2-b]pyridazin-2-yl)methyl)-1,2,5-oxadiazole-3-carboxamide], the pIC50 was greater than 7.00. For the compound `CC(C)c1nocc1C(=O)N[C@H](c1cn2nc(CC3C[C@@H](C(F)(F)F)CNC3=O)ccc2n1)C1CCC(F)(F)CC1` (stereo partly drawn) [Compound 102, N-((1S)-(4,4-difluorocyclohexyl)(6-(((5R)-2-oxo-5-(trifluoromethyl)piperidin-3-yl)methyl)imidazo[1,2-b]pyridazin-2-yl)methyl)-3-isopropylisoxazole-4-carboxamide], the pIC50 was greater than 7.00. Turning to `CCn1nccc1C(=O)NC(c1cn2nc(CC3CC(C)CNC3=O)ccc2n1)C1CCC(C)CC1` (single isomer, unassigned) [Compound 49], the pIC50 is 6.00 to 7.00.

Consider `O=C(N[C@H](c1cn2nc(CC3C[C@@H](C(F)(F)F)CNC3=O)ccc2n1)C1CCC(F)(F)CC1)c1ccnn1C1CC1(F)F` (single isomer, unassigned) [Compound 99], for which the pIC50 was 6.00 to 7.00. Under `CCn1nccc1C(=O)N[C@H](c1cn2nc(CC3C[C@H](C(F)(F)F)CNC3=O)ccc2n1)C1CCC(F)(F)CC1` (stereo partly drawn) [Compound 152, N-((1S)-(4,4-difluorocyclohexyl)(6-(((5S)-2-oxo-5-(trifluoromethyl)piperidin-3-yl)methyl)imidazo[1,2-b]pyridazin-2-yl)methyl)-1-ethyl-1H-pyrazole-5-carboxamide] stands 6.00 to 7.00.

With `O=C(N[C@H](c1cn2nc(CC3C[C@@H](C(F)(F)F)CNC3=O)ccc2n1)C1CCC(F)(F)CC1)c1ccnn1C1CC1(F)F` (single isomer, unassigned) [Compound 98], the pIC50 is greater than 7.00. `CCn1nccc1C(=O)N[C@H](c1cn2ncc(CC3C[C@@H](C(F)(F)F)NC3=O)cc2n1)[C@H]1CC[C@H](C)CC1` (single isomer, unassigned) [Compound 212]: the pIC50 was greater than 7.00. The value for `CCn1nccc1C(=O)N[C@H](c1cn2nc(CC3C[C@@H](C(F)(F)F)CNC3=O)ccc2n1)C1CC2(CCC2)C1` (single isomer, unassigned) [Compound 190] was less than 6.00; that for `CCn1nccc1C(=O)N[C@H](c1cn2nc(CC3CC(F)(F)CNC3=O)c(NC)cc2n1)C1CCC(F)(F)CC1` (single isomer, unassigned) [Compound 74] was less than 6.00.

As usually defined, the pIC50 is the negative decadic logarithm of the IC50, by convention in mol/L.
